This note sets out measurements from patent US20240059703A1 (AMGEN INC., priority 2021, published 2024).

In one assay the target is KRAS G12C (Homo sapiens (Human), UniProt P01116, C118A/G12C). Nature of the assay: 2 h coupled exchange assay. The format is biochemical. The settings on record: Avg 2 h Coupled exchange IC50, 2 h compound pre-incubation. The method, then: The term “2 h coupled exchange assay” or “20 h coupled exchange assay” as used herein refers to the assay described in the Section entitled “BIOLOGICAL EVALUATION.”
For the compound `C=CC(=O)N1CC2(CCN(c3nc4c(c(-c5cc(NS(C)(=O)=O)cc6ccccc56)c3C#N)CC(C)(C)C4)C2)C1` [Example 25-1, N-(4-(3-cyano-6,6-dimethyl-2-(2-(2-propenoyl)-2,6-diazaspiro[3.4]octan-6-yl)-6,7-dihydro-5H-cyclopenta[b]pyridin-4-yl)-2-naphthalenyl)methanesulfonamide], the IC50 is 450 nM.

Consider `C=CC(=O)N1CC2(CCN(c3nc4cc(-c5ccnn5C)ccc4c(-c4ccc(F)cc4F)c3C)C2)C1` [Example 16-6, 1-(6-(4-(2,4-difluorophenyl)-3-methyl-7-(1-methyl-1H-pyrazol-5-yl)-2-quinolinyl)-2,6-diazaspiro[3.4]octan-2-yl)-2-propen-1-one], for which the IC50 came to 708 nM. Same read-out and setting: with `C=CC(=O)N1CC2(CCN(c3nc4c(c(-c5c(C)ccc6cnn(C)c56)c3F)COC(C)(C)C4)C2)C1` (single isomer, unassigned) [Example 14-101, (M)-1-(6-(4-(1,6-dimethyl-1H-indazol-7-yl)-3-fluoro-7,7-dimethyl-7,8-dihydro-5H-pyrano[4,3-b]pyridin-2-yl)-2,6-diazaspiro[3.4]octan-2-yl)-2-propen-1-one] the figure was 301 nM; with `C=CC(=O)N1CC2(CCN(c3nc4c(c(-c5c(C)ccc6cnn(C)c56)c3F)COC(C)(C)C4)C2)C1` (single isomer, unassigned) [Example 14-102, (P)-1-(6-(4-(1,6-dimethyl-1H-indazol-7-yl)-3-fluoro-7,7-dimethyl-7,8-dihydro-5H-pyrano[4,3-b]pyridin-2-yl)-2,6-diazaspiro[3.4]octan-2-yl)-2-propen-1-one], 55600 nM; with `C=CC(=O)N1CC2(CCN(c3nc4cc(-c5ocnc5C)ccc4c(-c4ccccc4Cl)c3C#N)C2)C1` [Example 17-9, 4-(2-chlorophenyl)-7-(4-methyl-1,3-oxazol-5-yl)-2-(2-(2-propenoyl)-2,6-diazaspiro[3.4]octan-6-yl)-3-quinolinecarbonitrile], 722 nM. Same read-out and setting: next, `C=CC(=O)N1CC2(CCN(c3nc4c(c(-c5c(C)ccc6cn[nH]c56)c3C#N)COC(C)(C)C4)C2)C1` (single isomer, unassigned) [Example 14-82, (M)-7,7-dimethyl-4-(6-methyl-1H-indazol-7-yl)-2-(2-(2-propenoyl)-2,6-diazaspiro[3.4]octan-6-yl)-7,8-dihydro-5H-pyrano[4,3-b]pyridine-3-carbonitrile]: 5760 nM; `C=CC(=O)N1CC2(CCN(c3nc4c(c(-c5cc(O)ccc5C)c3F)COC(C)(C)C4)C2)C1` (single isomer, unassigned) [Example 14-61, (M)-1-(6-(3-fluoro-4-(5-hydroxy-2-methylphenyl)-7,7-dimethyl-7,8-dihydro-5H-pyrano[4,3-b]pyridin-2-yl)-2,6-diazaspiro[3.4]octan-2-yl)-2-propen-1-one]: 76800 nM. Same read-out and setting: with `C=CC(=O)N1CC2(CCN(c3nc4c(c(-c5c(C)ccc6cnn(C(F)F)c56)c3C#N)COC(C)(C)C4)C2)C1` [Example 14-83, 4-(1-(difluoromethyl)-6-methyl-1H-indazol-7-yl)-7,7-dimethyl-2-(2-(2-propenoyl)-2,6-diazaspiro[3.4]octan-6-yl)-7,8-dihydro-5H-pyrano[4,3-b]pyridine-3-carbonitrile] the figure was 432 nM; with `C=CC(=O)N1CC2(CCN(c3nc4c(c(-c5ccc(F)c(O)c5)c3C#N)C[C@H]3C[C@@H]4C3(C)C)C2)C1` [Example 14-49, (1R,9R)-6-(4-fluoro-3-hydroxyphenyl)-10,10-dimethyl-4-(2-(2-propenoyl)-2,6-diazaspiro[3.4]octan-6-yl)-3-azatricyclo[7.1.1.0^2,7]undeca-2,4,6-triene-5-carbonitrile], 776 nM.

The same assay, now with this note: Avg 2 h Coupled exchange IC50, 2 h compound pre-incubation, SOS-mediated nucleotide exchange.
As for `C=CC(=O)N1CC2(CCN(c3nc4c(c(-c5c(C)ccc6[nH]ncc56)c3COC)CCC(C)(C)C4)C2)C1` [Example 13-46, 1-(6-(3-(methoxymethyl)-7,7-dimethyl-4-(5-methyl-1H-indazol-4-yl)-5,6,7,8-tetrahydro-2-quinolinyl)-2,6-diazaspiro[3.4]octan-2-yl)-2-propen-1-one], inhibition was half-maximal at 685 nM (IC50). As to `C=CC(=O)N1CC2(CCN(c3nc4c(c(-c5cc(O)c(F)c6ccccc56)c3C#N)CC[C@H]3C[C@@H]43)C2)C1` (single isomer, unassigned) [Example 13-73], the midpoint of inhibition, the IC50, lay at 19300 nM. Regarding `C=CC(=O)N1CC2(CCN(c3nc4c(c(-c5c(C)ccc6cnn(C)c56)c3C#N)COC(C3CC3)C4)C2)C1` [Example 13-111, (7R)-7-cyclopropyl-4-(1,6-dimethyl-1H-indazol-7-yl)-2-(2-(2-propenoyl)-2,6-diazaspiro[3.4]octan-6-yl)-7,8-dihydro-5H-pyrano[4,3-b]pyridine-3-carbonitrile|(7S)-7-cyclopropyl-4-(1,6-dimethyl-1H-indazol-7-yl)-2-(2-(2-propenoyl)-2,6-diazaspiro[3.4]octan-6-yl)-7,8-dihydro-5H-pyrano[4,3-b]pyridine-3-carbonitrile], half-maximal inhibition (IC50) required 294 nM. Regarding `C=CC(=O)N1CC2(CCN(c3nc4cc(F)ccc4c(-c4c(C)ccc5[nH]ncc45)c3C)[C@H]2C)C1` (single isomer, unassigned) [Example 2-60], the IC50 came out at 4670 nM.

`C=CC(=O)N1CC2(CCN(c3nc4c(c(-c5cccc(F)c5O)c3C#N)C[C@H]3C[C@@H]4C3(C)C)C2)C1` (single isomer, unassigned) [Example 2-72] displayed an IC50 of 651 nM. In the case of `C=CC(=O)N1CC2(CCN(c3nc4c(c(-c5cc(O)cc6cccnc56)c3C#N)C[C@H]3C[C@@H]4C3(C)C)C2)C1` [Example 2-43, (1R,9R)-6-(6-hydroxy-8-quinolinyl)-10,10-dimethyl-4-(2-(2-propenoyl)-2,6-diazaspiro[3,4]octan-6-yl)-3-azatricyclo[7.1.1.0^2,7]undeca-2,4,6-triene-5-carbonitrile], 193 nM corresponded to half-maximal inhibition (IC50). On the same count and under the same terms, with `C=CC(=O)N1CC2(CCN(c3nc4c(c(-c5c(Cl)c(C)cc6[nH]ncc56)c3C#N)C[C@H]3C[C@@H]4C3(C)C)C2)C1` [Example 12-18, (1R,9R)-6-(5-chloro-6-methyl-1H-indazol-4-yl)-10,10-dimethyl-4-(2-(2-propenoyl)-2,6-diazaspiro[3.4]octan-6-yl)-3-azatricyclo[7.1.1.0^2,7] undeca-2,4,6-triene-5-carbonitrile] the figure was 988 nM; with `C=CC(=O)N1CC2(CCN(c3nc4c(c(-c5c(C)cccc5O)c3C#N)C[C@H]3C[C@@H]4C3)C2)C1` (single isomer, unassigned) [Example 13-39], 639 nM.

`C=CC(=O)N1CC2(CCN(c3nc4c(c(-c5cc(O)cc6ccccc56)c3C#N)CC(C)(C)C4)C2)C1` (single isomer, unassigned) [Example 13-68, (M)-4-(3-hydroxy-1 naphthalenyl)-6,6-dimethyl-2-(2-(2-propenoyl)-2,6-diazaspiro[3.4]octan-6-yl)-6,7-dihydro-5H-cyclopenta[b]pyridine-3-carbonitrile] gave an IC50 of 27000 nM. In turn, `C=CC(=O)N1CC2(CCN(c3nc4c(c(-c5cc(O)cc6ncccc56)c3C#N)C[C@H]3C[C@@H]4C3(C)C)C2)C1` (single isomer, unassigned) [Example 2-47] gave a half-inhibitory concentration (IC50) of 181 nM. Same read-out and setting: next, `C=CC(=O)N1CC2(CCN(c3nc4c(c(-c5c(O)ccc6ccccc56)c3C#N)C[C@H]3C[C@@H]4C3)C2)C1` [Example 13-35, (1S,9S)-6-(2-hydroxy-1-naphthalenyl)-4-(2-(2-propenoyl)-2,6-diazaspiro[3.4]octan-6-yl)-3-azatricyclo[7.1.1.0^2,7]undeca-2,4,6-triene-5-carbonitrile]: 1780 nM; `C=CC(=O)N1CC2(CCN(c3nc4c(c(-c5cnccc5C)c3C#N)C[C@H]3C[C@@H]4C3(C)C)C2)C1` (single isomer, unassigned) [Example 13-123]: 856 nM; `C=CC(=O)N1CC2(CCN(c3nc4c(c(-c5c(C)ccc6cnn(C)c56)c3C#N)COC4(C)C)C2)C1` [Example 13-55, 4-(1,6-dimethyl-1H-indazol-7-yl)-7,7-dimethyl-2-(2-(2-propenoyl)-2,6-diazaspiro[3.4]octan-6-yl)-5,7-dihydrofuro[3,4-b]pyridine-3-carbonitrile]: 877 nM. `C=CC(=O)N1CC2(CCN(c3nc4c(c(-c5cc(O)cc6nccnc56)c3C#N)C[C@H]3C[C@@H]4C3(C)C)C2)C1` (single isomer, unassigned) [Example 12-39]: 3900 nM corresponded to half-maximal inhibition (IC50).

The compound `C=CC(=O)N1CC2(CCN(c3nc4c(c(-c5cc(O)ccc5Cl)c3C)COC(C)(C)C4)C2)C1` [Example 2-35, 1-(6-(4-(2-chloro-5-hydroxyphenyl)-3,7,7-trimethyl-7,8-dihydro-5H-pyrano[4,3-b]pyridin-2-yl)-2,6-diazaspiro[3.4]octan-2-yl)-2-propen-1-one] yielded an IC50 of 186 nM. Consider `C=CC(=O)N1CC2(CCN(c3nc4c(c(-c5c(C)ccc6cnn(C)c56)c3C#N)CO[C@@H](C3CC3)C4)C2)C1` (single isomer, unassigned) [Example 13-119], for which the half-inhibitory concentration (IC50) worked out at 6700 nM. Compound `C=CC(=O)N1CC2(CCN(c3nc4c(c(-c5c(O)ccc6ccccc56)c3C#N)C[C@H]3C[C@@H]4C3)C2)C1` (single isomer, unassigned) [Example 13-36] yielded an IC50 of 991 nM. On the same count and under the same terms, next, `C=CC(=O)N1CC2(CCN(c3nc4c(c(-c5cccc6c(O)cccc56)c3C#N)COC(C)(C)C4)C2)C1` [Example 12-33, 4-(5-hydroxy-1-naphthalenyl)-7,7-dimethyl-2-(2-(2-propenoyl)-2,6-diazaspiro[3.4]octan-6-yl)-7,8-dihydro-5H-pyrano[4,3-b]pyridine-3-carbonitrile]: 527 nM.

Staying with this assay, now noted: read-out: Avg 2 h Coupled exchange IC50, 2 h compound pre-incubation, SOS-mediated nucleotide exchange.
Regarding “(P)-1-(6-(4-(5-chloro-1-methyl-1H-indazol-7-yl)-3,7,7-trimethyl-7,8-dihydro-5H-pyrano[4,3-b]pyridin-2-yl)-2,6-diazaspiro[3.4]octan-2-yl)-2-propen-1-one [Example 2-34]”, the half-maximal inhibitory concentration (IC50) turned out to be 427 nM.
